# Laboratory results: publication PMC3144219, “Identification of Inhibitors against Mycobacterium tuberculosis Thiamin Phosphate Synthase, an Important Target for the Development of Anti-TB Drugs” (PLoS ONE, 2011)
# Where two headings read alike, the source gives them in different places.
# Assays:
# Cc1ncsc1CCO = test: purified protein, by the assay type; conditions: pH 7.5; 37.0 °C
# [1] = target: T1, M.tuberculosis thiamin phosphate synthase (MtTPS) (Mycobacterium tuberculosis, UniProt P9WG75); test: biochemical; conditions: for inhibition at 100 µg/mL: read-out: percent inhibition of MtTPS activity
# M.smegmatis mc^2155 = test: MIC99 determination, broth macrodilution with CFU plating; format: cell-based; conditions: for inhibition of M.smegmatis growth: at (up to) 750 µg/ml; for MIC99 for M.smegmatis: 24 hours, 99% inhibition of growth
# M.tuberculosis H37Rv = test: MIC99 determination in broth culture with CFU plating; format: cell-based; conditions: 7 days, 99% inhibition of growth; for MIC99: Mycobacterium tuberculosis, H37RV, 168 h
# [2] = target: T1, M.tuberculosis thiamin phosphate synthase (MtTPS)
# T1 sequence (P9WG75 whole entry, looked up): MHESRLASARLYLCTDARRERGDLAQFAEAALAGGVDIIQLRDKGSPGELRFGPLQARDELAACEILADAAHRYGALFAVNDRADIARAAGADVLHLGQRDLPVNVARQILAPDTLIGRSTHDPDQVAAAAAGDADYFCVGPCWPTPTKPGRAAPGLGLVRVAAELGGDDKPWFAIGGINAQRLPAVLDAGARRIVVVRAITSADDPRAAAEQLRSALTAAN
compound,measurement,setting,value
M.tuberculosis thiamin phosphate synthase (MtTPS) (Mycobacterium tuberculosis H37Rv),Km,Cc1ncsc1CCO,14 µM
"CCN(CC)c1nc(Cl)nc(Nc2ccc3cc(-c4ccccc4)c(=O)oc3c2)n1 [Compound 35, Coumarin, 7-[[4-chloro-6-(diethylamino)-s-triazin-2-yl]amino]-3-phenyl-]",IC50,[1],> 237 µM
same,inhibition at 100 µg/mL,[1],> 20%
same,inhibition of M.smegmatis growth,M.smegmatis mc^2155,No inhibition
same,MIC99,M.tuberculosis H37Rv,125 mg/L
"O=C(Nc1cccc([N+](=O)[O-])c1)c1cc2ccccc2cc1O [Compound 10, Naphtazol B]",inhibition of M.smegmatis growth,M.smegmatis mc^2155,No inhibition
same,MIC99 for M.tuberculosis,M.tuberculosis H37Rv,750 mg/L
"CN1[C@@H]2CC[C@H]1CC(OC(c1ccccc1)c1ccccc1)C2.CS(=O)(=O)O (stereo partly drawn) [Compound 11, 3-benzhydryloxy-8-methyl-8-azab icyclo [3.2.1]octane;methanesulfonic acid]",MIC99 for M.smegmatis,M.smegmatis mc^2155,125 mg/L
same,MIC99 for M.tuberculosis,M.tuberculosis H37Rv,250 mg/L
"c1ccc(CSc2nnc3c4ccccc4c4ccccc4c3n2)cc1 [Compound 33, 3-benzylsulfanyl phenanthro[9,10-e][1,2,4]triazine]",MIC99 for M.smegmatis,M.smegmatis mc^2155,150 mg/L
same,MIC99 for M.tuberculosis,M.tuberculosis H37Rv,162.5 mg/L
same,IC50,[2],100 µ/ml
same,percent inhibition of MtTPS activity,[2],greater than 20%
"Cc1cc(O)c(C(C)C)cc1N=Cc1cc([N+](=O)[O-])ccc1O [Compound 9, 4-{[(2-hydroxy-5-nitrophenyl)methylidene]amino}-5-methyl-2-(propan-2-yl)phenol]",IC50,[1],108 µM
same,inhibition at 100 µg/mL,[1],> 20%
same,inhibition of M.smegmatis growth,M.smegmatis mc^2155,32% inhibition at 750 µg/ml
same,MIC99,M.tuberculosis H37Rv,6 mg/L
same,mode of inhibition of MtTPS,[2],competing with HMP-PP
"O=C(Nc1cccc([N+](=O)[O-])c1)c1ccc2ccccc2c1O [Compound 12, 1-hydroxy-(3-nitrophenyl) naphthalene-2-carboxamide]",inhibition of M.smegmatis growth,M.smegmatis mc^2155,45% inhibition at 750 µg/ml
same,IC50,[2],100 µ/ml
same,percent inhibition of MtTPS activity,[2],greater than 20%
